Reference: paper PMC10313921, “A living ex vivo platform for functional, personalized brain cancer diagnosis” (Cell Reports Medicine, 2023)

Assays:
[1] = system: MS21 (low-passage patient-derived GBM line); test: Drug screening of MS21 tumor foci on OBSCs; type: cell-based, human
Method in brief: (§1)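 Luciferase-expressing tumor cells seeded onto organotypic brain slice cultures; one day later treated with six drug concentrations in the medium, or X-irradiation. Bioluminescence read three days after treatment, normalised to day-one fluorescence and untreated controls. Dose-response values by linear interpolation; DSS combines weighted tumor-kill versus slice-toxicity parameters (−100 to 100).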

[2] = system: U373KO (RAD18 knockout of U373WT via CRISPR); test: Drug screening of U373KO tumor foci on OBSCs; type: cell-based, human; conditions: U373 KO on OBSCs
Method in brief: as §1

[3] = system: PGBM patient tumor tissue (pediatric GBM); test: Drug screening of uncultured patient tumor tissue PGBM on OBSCs; type: cell-based, human
Description: (§2) Tumor cells were seeded onto OBSCs 2h after slicing as described above. One day after tumor seeding, six concentrations of each drug were diluted in the media underneath each culture insert, or XRad was applied using an X-Rad 320 Precision X-ray machine (n = 4 tumor foci per concentration; n ≥ 24 tumor foci per drug per cell line). Three days after treatment, the bioluminescence of live tumor cells was measured using an AMI optical imager (Spectral Instruments) and dose-response curves were generated. Tumor survival was normalized to day one tumor fluorescence and compared to an untreated control group.
To engraft onto OBSCs, the cryopreserved/thawed or fresh brain tumor tissue was filtered through a 100 μm cell strainer. Each 50 mg of tissue was transfected with 1mL mcherry-FLuc Lentivirus at 1.5e7 vg/ml with 1μL polybrene for 4h at 37°C. After incubation, the brain tumor tissue was washed with PBS three times to remove the residual virus and reconstituted in PBS with a final volume of 150 μL. Then the tissue solution was engrafted atop OBSCs at ∼0.5 mg tissue in 3 μL of PBS on each hemisphere of the slice. The OBSC engrafted with patient tumor tissue was incubated at 37°C with 5% CO2 and 95% humidity. The BSM was changed after 24h and subsequently every 3 days. Tumor treatment studies were executed as described above for tumor lines. The viability of the patient tissue was measured by an AMI optical imaging system with the addition of 1.5 mg/mL luciferin underneath the culture insert.
Several weighted parameters were factored into an overall drug sensitivity score.
(§3) For DSS parameters 1–6, therapeutic windows were calculated by comparing OBSC toxicity and tumor response at the doses where tumor kill passed through the DSS parameter (Table S1 and S3). For DSS parameter 7, the therapeutic window was calculated by comparing the slopes through the tumor EC50 and the OBSC tox EC50. For DSS parameter 8, the therapeutic window was calculated by comparing the areas under tumor kill and OBSC tox curves. Normalized therapeutic window ratios for DSS parameters 1–8 within each drug-tumor-OBSC interaction were calculated in the following manner: within each window, values ranged from +1 to −1, where values approaching +1 signify increasing tumor kill relative to normal tissue toxicity, and values approaching −1 indicate agents where tumors remained highly viable while toxicity to the normal OBSC tissue was elevated. DSS parameters 9–11 were determined based on the behavior of the tumor in response to the drug, as defined above.
All individually weighed parameters were added together to generate the DSS. Overall DSS from 0 to 100 signify increasing efficacy in tumor kill relative to OBSC toxicity, while scores from 0 to −100 describe scenarios in which tumors thrive more effectively than OBSCs for a given treatment. Dose-response values were calculated via linear interpolation of raw data, not from best-fit curve equations.

[4] = system: PIS patient tumor tissue (intracranial sarcoma); test: Drug screening of uncultured patient tumor tissue PIS on OBSCs; type: cell-based, human; conditions: Homo sapiens, PIS on OBSCs
Method in brief: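 Uncultured patient tumour tissue, transduced with mCherry-FLuc lentivirus, engrafted on organotypic brain slice cultures (OBSCs); six drug concentrations or X-ray dosing given one day after seeding, n = 4 foci per concentration. Bioluminescence with luciferin read three days post-treatment, normalised to day one and untreated controls; drug sensitivity score combines weighted therapeutic-window parameters versus OBSC toxicity (−100 to 100).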

[5] = system: MMG-II patient tumor tissue (WHO grade II meningioma, multiple tumors); test: Drug screening of uncultured patient tumor tissue MMG-II on OBSCs; type: cell-based; conditions: Homo sapiens, dose required to kill 90% of the tumor
Description: as §2
To engraft onto OBSCs, the cryopreserved/thawed or fresh brain tumor tissue was filtered through a 100 μm cell strainer. Each 50 mg of tissue was transfected with 1mL mcherry-FLuc Lentivirus at 1.5e7 vg/ml with 1μL polybrene for 4h at 37°C. After incubation, the brain tumor tissue was washed with PBS three times to remove the residual virus and reconstituted in PBS with a final volume of 150 μL. […] The viability of the patient tissue was measured by an AMI optical imaging system with the addition of 1.5 mg/mL luciferin underneath the culture insert. […]
as §3, with “DSS parameters 9–11 were determined based on the behavior of the tumor in response to the drug, as defined above.” left out

[6] = system: U373WT (wild-type established GBM line); test: Drug screening of U373WT tumor foci on OBSCs; type: cell-based, human; conditions: U373 WT on OBSCs
Method in brief: as §1

[7] = system: PDIPG (low-passage pediatric patient-derived line); test: Drug screening of PDIPG tumor foci on OBSCs; type: cell-based, human
Method in brief: as §1

[8] = system: GBM8 (high-passage patient-derived GBM line); test: Drug screening of GBM8 tumor foci on OBSCs; type: cell-based, human
Method in brief: as §1

[9] = system: MB231Br (breast cancer metastasis to brain); test: Drug screening of MB231Br tumor foci on OBSCs; type: cell-based, human
[10] = system: LN229 (established GBM line); test: Drug screening of LN229 tumor foci on OBSCs; type: cell-based, human
Method in brief: as §1

[11] = Homo sapiens, U373 MG, dose required to kill 50% of the tumor
[12] = Homo sapiens, U373 MG, dose required to kill 90% of the tumor
[13] = Homo sapiens, U373 MG, dosed day 1, survival via bioluminescence day 4, linear interpolation
[14] = area under the dose-response curve, trapezoidal rule
[15] = dose required to kill 10% of the tumor
[16] = dose required to kill 25% of the tumor

SMILES: CC(=O)Nc1cccc(-n2c(=O)n(C3CC3)c(=O)c3c(Nc4ccc(I)cc4F)n(C)c(=O)c(C)c32)c1 [Trametinib]
- EC50 ([1]; Homo sapiens): > 10 µM
- EC90 ([1]; Homo sapiens): > 10 µM
- IC50 ([1]; Homo sapiens): > 10 µM
- Killing at highest dose ([1]; MS21 on OBSCs): -5.00E-02 fraction of tumor population killed
- AUC ([1]; MS21 on OBSCs, area under the dose-response curve, trapezoidal rule): 1.26E+02
- EC50 [2, 11]: > 10 µM
- EC90 [2, 12]: > 10 µM
- IC50 [2, 13]: > 10 µM
- Killing at highest dose [2]: 3.10E-01 fraction of tumor population killed
- AUC [2, 14]: 8.91E+01
- EC10 [2, 15]: 45.8 µM
- EC25 [2, 16]: 84.5 µM
- Slope ([2]; slope through the EC50): -3.88E-03
- EC50 ([3]; Homo sapiens, PGBM on OBSCs, dose required to kill 50% of the tumor): > 100 µM
- EC90 ([3]; Homo sapiens, PGBM on OBSCs, dose required to kill 90% of the tumor): > 10 µM
- Killing at highest dose ([3]; PGBM patient tissue on OBSCs, 72 h): about one-third
- DSS (drug sensitivity score) ([3]; PGBM patient tissue, scale -100 to +100): 16
- EC50 ([4]; dose required to kill 50% of the tumor): > 100 µM
- EC90 ([4]; dose required to kill 90% of the tumor): > 10 µM
- EC90 [5]: > 10 µM
- EC50 [6, 11]: > 10 µM
- EC90 [6, 12]: > 10 µM
- IC50 [6, 13]: > 10 µM
- Killing at highest dose [6]: 4.80E-01 fraction of tumor population killed
- AUC [6, 14]: 5.40E+01
- EC10 [6, 15]: 0.625 µM
- EC25 [6, 16]: 2.16 µM
- Slope ([6]; slope through the EC50): -2.50E-04
- EC50 ([7]; Homo sapiens): > 10 µM
- EC90 ([7]; Homo sapiens): > 10 µM
- IC50 ([7]; Homo sapiens): > 10 µM
- Killing at highest dose ([7]; PDIPG on OBSCs): 1.70E-01 fraction of tumor population killed
- AUC ([7]; PDIPG on OBSCs, area under the dose-response curve, trapezoidal rule): 8.73E+01
- EC10 ([7]; PDIPG on OBSCs, dose required to kill 10% of the tumor): 30 µM
- Slope ([7]; PDIPG on OBSCs, slope through the EC50): -1.00E-03
- Killing at highest dose ([8]; GBM8 on OBSCs): 9.80E-01 fraction of tumor population killed
- AUC ([8]; GBM8 on OBSCs, area under the dose-response curve, trapezoidal rule): 4.78E+00
- EC10 ([8]; GBM8 on OBSCs, dose required to kill 10% of the tumor): 0.0313 µM
- EC25 ([8]; GBM8 on OBSCs, dose required to kill 25% of the tumor): 0.0781 µM
- EC75 ([8]; GBM8 on OBSCs, dose required to kill 75% of the tumor): 0.779 µM
- Slope ([8]; GBM8 on OBSCs, slope through the EC50): -6.33E-01
- EC50 ([8]; Homo sapiens): 0.384 µM
- EC90 ([8]; Homo sapiens): 1.67 µM
- IC50 ([8]; Homo sapiens): 0.38 µM
- EC50 ([9]; Homo sapiens, MB231BR on OBSCs, dose required to kill 50% of the tumor): 0.784 µM
- EC90 ([9]; Homo sapiens, MB231BR on OBSCs, dose required to kill 90% of the tumor): > 10 µM
- IC50 ([9]; Homo sapiens, MB231Br on OBSCs, dosed day 1, survival via bioluminescence day 4, linear interpolation): 0.78 µM
- Killing at highest dose ([9]; MB231BR on OBSCs): 7.00E-01 fraction of tumor population killed
- AUC ([9]; MB231BR on OBSCs, area under the dose-response curve, trapezoidal rule): 3.32E+01
- Slope ([9]; MB231BR on OBSCs, slope through the EC50): -2.78E-01
- Killing at highest dose [10]: 5.60E-01 fraction of tumor population killed
- EC50 ([10]; Homo sapiens, LN-229, dose required to kill 50% of the tumor): 18.6 µM
- EC90 ([10]; Homo sapiens, LN-229, dose required to kill 90% of the tumor): > 10 µM
- IC50 ([10]; Homo sapiens, LN-229, dosed day 1, survival via bioluminescence day 4, linear interpolation): 19 µM
- AUC [10, 14]: 4.96E+01
- EC10 [10, 15]: 0.668 µM
- EC25 [10, 16]: 3.46 µM
- Slope ([10]; slope through the EC50): -1.47E-02
